Patent US6362319B1, “Glial cell line-derived neurotrophic factor” (Amgen Inc., priority 1991, dated 2002)

Experiments:
[1] = system: GABA neurons in mesencephalic cultures; settings: Casper et al. 1991; cited from earlier work
[2] = system: dopaminergic neurons in rat embryo (E16) mesencephalic cell cultures; settings: Casper et al. 1991; cited from earlier work
[3] = system: serotonergic neurons in rat embryo mesencephalic cultures; settings: Casper et al. 1991; cited from earlier work
[4] = system: serotonergic neurons in rat embryo mesencephalic cultures; experiment: 3H-serotonin uptake in mesencephalic cultures; type: cell-based; settings: 10 μM inhibitor
Experimental: FIGS. 24A-B depicts the specificity of GDNF to dopaminergic neurons. Cultures were prepared as described in Example 1B. GDNF was added on the day of plating, and uptake was measured after 6 days in vitro. A depicts dopamine uptake and B depicts serotonin uptake.
In the presence of 10 μM citalpram (obtained from Dr. C. Mytilineou, Mount Sinai School of Medicine), a known potent inhibitor of serotonin uptake in serotonin neurons, the ^3H-serotonin uptake was reduced to 15%.

[5] = biological target: monoamine transporter on dopaminergic neurons (Rattus norvegicus, UniProt P23977); settings: 0.5 mM inhibitor in uptake buffer
monoamine transporter on dopaminergic neurons, sequence (P23977 whole entry): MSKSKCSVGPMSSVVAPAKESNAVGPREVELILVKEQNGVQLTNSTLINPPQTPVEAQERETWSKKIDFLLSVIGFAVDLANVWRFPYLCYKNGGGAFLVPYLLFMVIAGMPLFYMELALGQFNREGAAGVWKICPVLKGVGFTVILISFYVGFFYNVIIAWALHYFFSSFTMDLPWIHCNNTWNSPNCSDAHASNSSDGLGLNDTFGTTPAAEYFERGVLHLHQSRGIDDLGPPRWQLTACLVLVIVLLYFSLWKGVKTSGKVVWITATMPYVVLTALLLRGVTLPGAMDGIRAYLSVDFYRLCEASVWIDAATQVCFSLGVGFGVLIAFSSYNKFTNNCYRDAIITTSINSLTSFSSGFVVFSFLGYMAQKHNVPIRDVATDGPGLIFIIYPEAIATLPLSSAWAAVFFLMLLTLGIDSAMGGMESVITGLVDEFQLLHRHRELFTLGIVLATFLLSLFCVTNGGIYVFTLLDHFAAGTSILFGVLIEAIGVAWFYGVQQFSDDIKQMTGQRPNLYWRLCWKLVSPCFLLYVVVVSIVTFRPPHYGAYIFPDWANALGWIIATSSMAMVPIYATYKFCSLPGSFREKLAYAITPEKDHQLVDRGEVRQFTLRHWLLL
Description: The functional status of the dopaminergic neurons may be assayed in these cultures by measuring dopamine uptake through specific “scavenger” transporters in the dopaminergic neurons and by counting the number of neurons positive for the dopamine synthetic enzyme tyrosine hydroxylase using immunohistochemistry.

[6] = system: GABA neurons in mesencephalic cultures; experiment: 14C-GABA uptake in mesencephalic cultures; type: cell-based, rat; settings: 1 mM inhibitor
Experimental: FIGS. 21A-C depicts the specificity of GDNF to dopaminergic neurons. Cultures were established as described in Example 1B. GDNF was added on the day of plating. A. ^3H-DA uptake was measured after seven days in vitro. B. ^14C-GABA uptake was measured after eight days in vitro. Cells were incubated and treated as for ^3H-DA uptake, except the uptake buffer consists of Kreb-Ringer's phosphate buffer, pH 7.4, containing 5.6 mM glucose, 1.3 mM EDTA, 10 μM amino-oxyacetic acid (to prevent GABA breakdown), 2 mM β-alanine (to inhibit glia uptake of GABA) and 0.1 μM ^14C-GABA (150 mCi/mmole, New England Nuclear, Boston, Mass.). In the presence of 1 mM diaminobutyric acid (DABA), a potent inhibitor of ^14C-GABA uptake into GABA neurons, the ^14C-uptake was reduced to 10%. Control values in the presence of DABA were subtracted from experimental values.
H^3-dopamine (^3H-DA) and ^14C-GABA uptake were measured in sister cultures of mesencephalic cells which had been grown with various concentrations of GDNF for 15 and 16 days, respectively. As described above, GDNF enhanced the ^3H-DA uptake capacity of mesencephalic dopamine neurons ˜150% over control without GDNF (FIG. 21A). […] This is also illustrated by the increase in the ^3H-DA/^14C-GABA uptake ratio calculated (FIG. 21C).

## epidermal growth factor (NSDSECPLSHDGYCLHDGVCMYIEALDKYACNCVVGYIGERCQYRDLKWWELR; Epidermal growth factor; UniProt P01133 971-1023, looked up) [EGF, non-specific factor increasing dopamine, serotonin and GABA uptake]
[1]
  effect on GABA uptake: increase
[2]
  effect on dopamine uptake: increase dopamine uptake
[3]
  effect on serotonin uptake: increase serotonin uptake

## CN(C)CCCC1(c2ccc(F)cc2)OCc2cc(C#N)ccc21 (stereo not drawn) [citalpram, reference compound]
[4]
  3H-serotonin uptake remaining in presence of inhibitor: 15%

## Fc1ccc(C(OCCN2CCN(CCCc3ccccc3)CC2)c2ccc(F)cc2)cc1 [GBR12909]
[5]
  blank 3H-DA uptake as % of uptake in untreated control cultures: less than 5%

## NCCC(N)C(=O)O (stereo not drawn) [diaminobutyric acid (DABA), diaminobutyric acid, reference compound]
[6]
  14C-uptake remaining in presence of inhibitor: 10%
